In patent US20250368678A1, “19-NOR-C3,3-DISUBSTITUTED C21-AZACYCLO-S[…] AND METHOD FOR USING SAME” (SHANDONG LUYE PHARMACEUTICAL CO., LTD., priority 2022, published 2025):
pEC50: −log10 of the molar value.

tested on: not listed separately; test: In vitro liver microsomal stability assay, human; type: in vitro ADME; conditions: Human liver microsomes
Procedure: (§1) 1) Preparation of working solutions of test samples: The test samples were diluted with acetonitrile to 100 M.
(§2) 2) Preparation of a working solution of liver microsomes: liver microsomes were diluted with 100 mM phosphate-buffered saline to 0.56 mg/mL.
(§3) 3) Preparation of a working solution of reduced nicotinamide adenine dinucleotide (NADPH): A proper amount of NADPH was weighed out and diluted with phosphate-buffered saline to 20 mM, and an equal volume of a 60 mM MgCl2 solution was added.
(§4) 4) Preparation of a stop solution: Tolbutamide was diluted with acetonitrile to 20 ng/mL, serving as a stop solution containing an internal standard.
(§5) 1) Incubation anti-adsorption EP tubes were prepared and labeled with species, test/control sample, time points (0, 5, 10, 20, 30, 60 min, Blank60, and NCF60), etc.
(§6) 2) 2 L of test or control sample working solution, diluted with acetonitrile to 100 M, and 178 L of liver microsome working solution were added to each tube. For the Blank60 tube, 2 L of acetonitrile was added instead of a test sample. The tubes were pre-incubated in a 37° C. water bath for about 10 min, with each sample tested in triplicate.
(§7) 3) After the pre-incubation was complete, 20 L of NADPH working solution was added to each tube except for the 0 min and NCF60 tubes to start reactions, and 20 L of phosphate-buffered saline (containing 30 mM MgCl2) was added to the NCF60 tube. In the incubation system, the final concentrations of the test and control samples were 1 M, the final concentration of liver microsomes was 0.5 mg/mL, the final concentration of NADPH was 1 mM, and the final concentration of MgCl2 was 3 mM.
(§8) 4) For the 0 min sample, 600 L of stop solution was added before adding the NADPH working solution. After each sample was incubated for its respective time, 600 L of stop solution was added to stop the reaction.
(§9) 5) After the reaction was stopped, each sample was vortexed for 30 s and then centrifuged at 13,500 rpm for 10 min. 100 L of the supernatant was transferred to an EP tube, and 100 L Milli-Q water was added. The mixture was well mixed by vortexing and analyzed by LC-MS/MS.
(§10) 6) Testosterone and dextromethorphan were used as positive control samples under the same conditions to assess the stability and reliability of the system.
(§11) Parameters of the test samples, including their half-lives, intrinsic clearance rates in liver microsomes, and hepatic intrinsic clearance rates, were calculated based on the percentage of test sample remaining.

| Compound | CLint scaled at 1 µM [mL/min/kg] | half-life at 1 µM [min] |
| --- | --- | --- |
| Cn1ncn(CC(=O)[C@H]2CC[C@H]3[C@@H]4CC[C@@H]5C[C@](C)(O)CC[C@@H]5[C@H]4CC[C@]23C)c1=O [Compound 6] | 10 | 126 |
| COCCn1ncn(CC(=O)[C@H]2CC[C@H]3[C@@H]4CC[C@@H]5C[C@](C)(O)CC[C@@H]5[C@H]4CC[C@]23C)c1=O [Compound 31] | 37 | 34.1 |
| C[C@@]1(O)CC[C@H]2[C@H](CC[C@@H]3[C@@H]2CC[C@]2(C)[C@@H](C(=O)Cn4cnn(-c5nccs5)c4=O)CC[C@@H]32)C1 [Compound 32] | 19 | 64.8 |

same assay, conditions: Human liver microsomes 0.5 mg/mL, NADPH

| Compound | Remaining amount % at 60 min [%] |
| --- | --- |
| Cn1ncn(CC(=O)[C@H]2CC[C@H]3[C@@H]4CC[C@@H]5C[C@](C)(O)CC[C@@H]5[C@H]4CC[C@]23C)c1=O [Compound 6] | 72.92 |
| COCCn1ncn(CC(=O)[C@H]2CC[C@H]3[C@@H]4CC[C@@H]5C[C@](C)(O)CC[C@@H]5[C@H]4CC[C@]23C)c1=O [Compound 31] | 28.5 |
| C[C@@]1(O)CC[C@H]2[C@H](CC[C@@H]3[C@@H]2CC[C@]2(C)[C@@H](C(=O)Cn4cnn(-c5nccs5)c4=O)CC[C@@H]32)C1 [Compound 32] | 66.8 |

same assay, conditions: Human liver microsomes; read-out: CLint(mic)

| Compound | microsomal CLint at 1 µM [µL/min/mg] |
| --- | --- |
| Cn1ncn(CC(=O)[C@H]2CC[C@H]3[C@@H]4CC[C@@H]5C[C@](C)(O)CC[C@@H]5[C@H]4CC[C@]23C)c1=O [Compound 6] | 11 |
| COCCn1ncn(CC(=O)[C@H]2CC[C@H]3[C@@H]4CC[C@@H]5C[C@](C)(O)CC[C@@H]5[C@H]4CC[C@]23C)c1=O [Compound 31] | 41 |
| C[C@@]1(O)CC[C@H]2[C@H](CC[C@@H]3[C@@H]2CC[C@]2(C)[C@@H](C(=O)Cn4cnn(-c5nccs5)c4=O)CC[C@@H]32)C1 [Compound 32] | 21 |

target: T1, α1β2γ2 GABA receptors (α1β2γ2-CHO-TRex stable cell strain) (Homo sapiens, UniProt P14867+P47870); test: Whole-cell patch clamp, intrasynaptic functional activity (positive allosteric regulation of GABA-induced current); type: cell-based; conditions: patch clamp -60 mV, GABA at EC10-20, α1β2γ2-CHO-TRex cells
T1 construct: expressed in transfected cells
Procedure: (§12) The α4β3δ-HEK-FlpIn-TRex stable cell strain was cultured in DMEM+10% FBS complete culture medium, with the selective antibiotics being 10 μg/mL Blasticidin, 100 µg/mL Zeocin, 100 µg/mL Hygromycin, and 0.2 μg/mL Puromycin. The α1β2γ2-CHO-TRex stable cell strain was cultured in DMEM/F12+10% FBS complete culture medium, with the selective antibiotics being 10 μg/mL Blasticidin, 100 μg/mL Zeocin, 300 μg/mL Hygromycin, and […] Puromycin.
(§13) The day before the patch clamp experiment, cells were seeded onto 12 mm polylysine-coated coverslips and then cultured in 35 mm culture dishes, and tetracycline ([…]) was added to induce the expression of GABA receptors. The extracellular fluid had the following composition (in mM): 140 NaCl, 3 KCl, 1.5 MgCl2, 2 CaCl2, 10 HEPES, and 10 Glucose. After thorough mixing, NaOH was added to adjust the pH to 7.4, and sucrose was added to adjust the osmotic pressure to 300-320 mOsm. The fluid was stored at 4° C. The electrode internal solution had the following composition (in mM): 145 KCl, 1 MgCl2, 5 EGTA, 10 HEPES, and 5 MgATP. After thorough mixing, KOH was added to adjust the pH to 7.3, and sucrose was added to adjust the osmotic pressure to 290-300 mOsm. The solution was filtered through a […] before use.
(§14) Whole-cell patch clamp recording was mainly employed in this experiment. The membrane potential was clamped at −60 mV, and receptors were activated using GABA at an EC10-20 concentration ([…]). The test compounds were dissolved in 0.1% DMSO, and perfusion was performed for 30 s prior to GABA stimulation. Finally, the positive allosteric regulating effects of the test compounds on α1β2γ2 or α4β3δ were determined.
(§15) The experimental result for each concentration was expressed as a fold increase in the GABA-induced current caused by the compound. […] At least 5 concentrations are tested to obtain a complete EC50 curve and EC50 values. All experiments were repeated on no less than 3 cells, and data processing was completed using GraphPad prism software. The dose-response curves were fitted using the Hill equation, and the half-maximal activating concentration EC50 and Emax were finally obtained.

T1 sequence (P14867 28-456): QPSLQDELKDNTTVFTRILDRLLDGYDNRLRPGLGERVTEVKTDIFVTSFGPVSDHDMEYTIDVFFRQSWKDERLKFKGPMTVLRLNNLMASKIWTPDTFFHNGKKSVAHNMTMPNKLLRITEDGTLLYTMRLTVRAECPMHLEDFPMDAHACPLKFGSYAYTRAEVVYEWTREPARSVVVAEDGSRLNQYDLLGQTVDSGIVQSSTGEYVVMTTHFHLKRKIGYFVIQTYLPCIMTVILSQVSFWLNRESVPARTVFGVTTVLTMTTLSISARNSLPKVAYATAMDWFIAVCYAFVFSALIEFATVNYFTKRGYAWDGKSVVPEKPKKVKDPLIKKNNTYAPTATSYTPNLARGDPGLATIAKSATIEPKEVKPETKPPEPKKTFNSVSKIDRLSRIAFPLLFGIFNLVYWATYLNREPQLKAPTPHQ
T1 sequence (P47870 25-512 limits assumed): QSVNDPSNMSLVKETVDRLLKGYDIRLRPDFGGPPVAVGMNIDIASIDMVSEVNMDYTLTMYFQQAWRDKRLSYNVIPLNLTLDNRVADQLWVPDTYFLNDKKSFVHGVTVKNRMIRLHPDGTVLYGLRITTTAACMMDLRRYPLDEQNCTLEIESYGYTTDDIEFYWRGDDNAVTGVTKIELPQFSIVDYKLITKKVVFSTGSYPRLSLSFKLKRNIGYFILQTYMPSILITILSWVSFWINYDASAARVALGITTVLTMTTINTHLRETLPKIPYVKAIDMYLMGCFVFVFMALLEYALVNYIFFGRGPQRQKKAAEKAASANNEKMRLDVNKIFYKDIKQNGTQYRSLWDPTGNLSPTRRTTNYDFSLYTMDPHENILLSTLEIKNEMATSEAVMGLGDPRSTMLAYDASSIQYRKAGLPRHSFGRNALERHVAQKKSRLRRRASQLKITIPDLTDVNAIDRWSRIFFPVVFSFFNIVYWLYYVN
T1 sequence (P18507 40-475 partner): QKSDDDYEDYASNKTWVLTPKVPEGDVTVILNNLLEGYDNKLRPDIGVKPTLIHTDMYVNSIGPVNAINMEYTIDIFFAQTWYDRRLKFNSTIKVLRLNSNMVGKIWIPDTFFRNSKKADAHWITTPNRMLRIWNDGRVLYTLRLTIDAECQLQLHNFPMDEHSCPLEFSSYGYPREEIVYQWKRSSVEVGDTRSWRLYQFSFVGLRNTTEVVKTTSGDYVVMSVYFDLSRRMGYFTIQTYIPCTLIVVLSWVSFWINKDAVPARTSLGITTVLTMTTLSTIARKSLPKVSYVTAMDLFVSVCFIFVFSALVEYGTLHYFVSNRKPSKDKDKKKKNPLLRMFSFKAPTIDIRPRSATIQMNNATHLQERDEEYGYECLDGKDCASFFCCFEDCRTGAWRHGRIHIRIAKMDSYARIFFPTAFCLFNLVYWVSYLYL

| Compound | pEC50 | Emax [%] |
| --- | --- | --- |
| Cn1ncn(CC(=O)[C@H]2CC[C@H]3[C@@H]4CC[C@@H]5C[C@](C)(O)CC[C@@H]5[C@H]4CC[C@]23C)c1=O [Compound 6] | 6.35 | 242 |
| COCCn1ncn(CC(=O)[C@H]2CC[C@H]3[C@@H]4CC[C@@H]5C[C@](C)(O)CC[C@@H]5[C@H]4CC[C@]23C)c1=O [Compound 31] | – | 735 |
| C[C@@]1(O)CC[C@H]2[C@H](CC[C@@H]3[C@@H]2CC[C@]2(C)[C@@H](C(=O)Cn4cnn(-c5nccs5)c4=O)CC[C@@H]32)C1 [Compound 32] | 6.48 | 763 |

tested on: not listed separately; test: In vitro liver microsomal stability assay, rat; type: in vitro ADME; conditions: Rat liver microsomes
Procedure: as §1, §2, §3, §4, §5, §6, §7, §8, §9, §10, §11

| Compound | CLint scaled at 1 µM [mL/min/kg] | half-life at 1 µM [min] |
| --- | --- | --- |
| Cn1ncn(CC(=O)[C@H]2CC[C@H]3[C@@H]4CC[C@@H]5C[C@](C)(O)CC[C@@H]5[C@H]4CC[C@]23C)c1=O [Compound 6] | 117 | 21.3 |
| COCCn1ncn(CC(=O)[C@H]2CC[C@H]3[C@@H]4CC[C@@H]5C[C@](C)(O)CC[C@@H]5[C@H]4CC[C@]23C)c1=O [Compound 31] | 234 | 10.7 |
| C[C@@]1(O)CC[C@H]2[C@H](CC[C@@H]3[C@@H]2CC[C@]2(C)[C@@H](C(=O)Cn4cnn(-c5nccs5)c4=O)CC[C@@H]32)C1 [Compound 32] | 152 | 15.4 |

same assay, conditions: Rat liver microsomes 0.5 mg/mL, NADPH

| Compound | Remaining amount % at 60 min [%] |
| --- | --- |
| Cn1ncn(CC(=O)[C@H]2CC[C@H]3[C@@H]4CC[C@@H]5C[C@](C)(O)CC[C@@H]5[C@H]4CC[C@]23C)c1=O [Compound 6] | 15.45 |
| COCCn1ncn(CC(=O)[C@H]2CC[C@H]3[C@@H]4CC[C@@H]5C[C@](C)(O)CC[C@@H]5[C@H]4CC[C@]23C)c1=O [Compound 31] | 2.1 |
| C[C@@]1(O)CC[C@H]2[C@H](CC[C@@H]3[C@@H]2CC[C@]2(C)[C@@H](C(=O)Cn4cnn(-c5nccs5)c4=O)CC[C@@H]32)C1 [Compound 32] | 7.7 |

same assay, conditions: Rat liver microsomes; read-out: CLint(mic)

| Compound | microsomal CLint at 1 µM [µL/min/mg] |
| --- | --- |
| Cn1ncn(CC(=O)[C@H]2CC[C@H]3[C@@H]4CC[C@@H]5C[C@](C)(O)CC[C@@H]5[C@H]4CC[C@]23C)c1=O [Compound 6] | 65 |
| COCCn1ncn(CC(=O)[C@H]2CC[C@H]3[C@@H]4CC[C@@H]5C[C@](C)(O)CC[C@@H]5[C@H]4CC[C@]23C)c1=O [Compound 31] | 130 |
| C[C@@]1(O)CC[C@H]2[C@H](CC[C@@H]3[C@@H]2CC[C@]2(C)[C@@H](C(=O)Cn4cnn(-c5nccs5)c4=O)CC[C@@H]32)C1 [Compound 32] | 85 |

target: T2, α4β3δ GABA receptors (α4β3δ-HEK-FlpIn-TRex stable cell strain) (Homo sapiens, UniProt P28472+P48169); test: Whole-cell patch clamp, extrasynaptic functional activity (positive allosteric regulation of GABA-induced current); type: cell-based; conditions: patch clamp -60 mV, GABA at EC10-20, α4β3δ-HEK-FlpIn-TRex cells
T2 construct: expressed in transfected cells
Procedure: as §12, §13, §14, §15

T2 sequence (P48169 36-554): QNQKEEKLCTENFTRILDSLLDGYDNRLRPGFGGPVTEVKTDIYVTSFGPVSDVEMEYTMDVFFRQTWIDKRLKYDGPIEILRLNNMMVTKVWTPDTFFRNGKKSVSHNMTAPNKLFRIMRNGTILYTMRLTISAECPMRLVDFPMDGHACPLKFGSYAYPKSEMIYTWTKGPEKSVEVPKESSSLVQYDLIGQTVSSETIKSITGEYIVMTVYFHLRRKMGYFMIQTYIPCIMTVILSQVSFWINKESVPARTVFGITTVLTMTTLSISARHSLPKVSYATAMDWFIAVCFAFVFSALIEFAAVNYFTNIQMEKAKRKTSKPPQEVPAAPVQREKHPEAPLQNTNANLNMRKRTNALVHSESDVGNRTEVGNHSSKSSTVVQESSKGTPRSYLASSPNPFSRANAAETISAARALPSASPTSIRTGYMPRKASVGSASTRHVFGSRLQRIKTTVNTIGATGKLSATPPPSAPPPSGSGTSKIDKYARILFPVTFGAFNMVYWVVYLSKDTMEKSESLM
T2 sequence (P28472 26-473): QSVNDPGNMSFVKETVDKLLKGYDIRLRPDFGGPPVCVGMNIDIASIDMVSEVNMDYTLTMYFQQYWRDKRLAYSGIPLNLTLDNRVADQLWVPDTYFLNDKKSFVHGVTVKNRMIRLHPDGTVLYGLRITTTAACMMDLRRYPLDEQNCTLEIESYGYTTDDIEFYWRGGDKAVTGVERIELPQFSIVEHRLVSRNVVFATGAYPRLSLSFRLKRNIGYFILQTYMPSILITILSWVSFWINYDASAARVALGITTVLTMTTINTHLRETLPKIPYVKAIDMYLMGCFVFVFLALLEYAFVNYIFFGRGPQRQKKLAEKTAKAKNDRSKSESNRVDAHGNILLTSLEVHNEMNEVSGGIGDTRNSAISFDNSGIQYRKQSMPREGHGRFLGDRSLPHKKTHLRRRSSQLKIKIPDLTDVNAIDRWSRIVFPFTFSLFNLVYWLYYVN
T2 sequence (O14764 25-452 partner): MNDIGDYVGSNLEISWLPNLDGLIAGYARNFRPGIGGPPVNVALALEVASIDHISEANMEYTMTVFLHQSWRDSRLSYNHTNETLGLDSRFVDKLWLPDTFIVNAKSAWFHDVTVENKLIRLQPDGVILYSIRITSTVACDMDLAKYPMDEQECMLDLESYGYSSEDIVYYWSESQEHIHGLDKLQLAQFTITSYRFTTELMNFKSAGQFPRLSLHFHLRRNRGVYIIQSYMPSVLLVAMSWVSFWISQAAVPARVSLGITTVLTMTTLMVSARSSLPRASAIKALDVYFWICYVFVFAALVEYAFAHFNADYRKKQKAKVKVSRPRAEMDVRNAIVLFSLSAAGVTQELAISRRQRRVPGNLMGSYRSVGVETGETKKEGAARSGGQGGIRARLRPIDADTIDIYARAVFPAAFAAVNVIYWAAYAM

| Compound | pEC50 | Emax [%] |
| --- | --- | --- |
| Cn1ncn(CC(=O)[C@H]2CC[C@H]3[C@@H]4CC[C@@H]5C[C@](C)(O)CC[C@@H]5[C@H]4CC[C@]23C)c1=O [Compound 6] | 6.52 | 497 |
| COCCn1ncn(CC(=O)[C@H]2CC[C@H]3[C@@H]4CC[C@@H]5C[C@](C)(O)CC[C@@H]5[C@H]4CC[C@]23C)c1=O [Compound 31] | – | 609 |
| C[C@@]1(O)CC[C@H]2[C@H](CC[C@@H]3[C@@H]2CC[C@]2(C)[C@@H](C(=O)Cn4cnn(-c5nccs5)c4=O)CC[C@@H]32)C1 [Compound 32] | 6.90 | 633 |
